Read-outs that look alike come from different tables or passages of the source.
Tests used:
[1] = target: CDK9/cyclin T1 (Homo sapiens, UniProt P50750); assay: CDK 9 assay; format: biochemical
Experimental: (§1) CTD peptide substrate (biotinyl-Ahx-(Tyr-Ser-Pro-Thr-Ser-Pro-Ser)4-NH2; 1-2 mg/mL) and recombinant human CDK7/cyclin H, CDK9/cyclin TI, or CDK9/cyclin K (0.5-2 μg) were incubated for 45 min at 30° C. in the presence of varying amounts of test compound in 20 mM MOPS pH 7.2, 25 mM β-glycerophosphate, 5 mM EGTA, 1 mM DTT, 1 mM sodium vanadate, 15 mM MgCl2, and 100 μM ATP (containing a trace amount of ^32PγATP) in a total volume of 25 μL in a 96-well microtiter plate. The reaction was stopped by placing the plate on ice for 2 min. Avidin (50 μg) was added to each well, and the plate was incubated at room temp for 30 min. The samples were transferred to a 96-well P81 filter plate, and washed (4×200 μL per well) with 75 mM phosphoric acid. Microscint 40 scintillation liquid (50 μL) was added to each well, and the amount of ^32P incorporation for each sample was measured using a Packard Topcount microplate scintillation counter.

[2] = target: CDK4/cyclin D1 (Homo sapiens, UniProt P11802); assay: Kinase assay CDK4/cyclin D1; format: biochemical
Chain of CDK4/cyclin D1 (P11802 whole entry, species assumed): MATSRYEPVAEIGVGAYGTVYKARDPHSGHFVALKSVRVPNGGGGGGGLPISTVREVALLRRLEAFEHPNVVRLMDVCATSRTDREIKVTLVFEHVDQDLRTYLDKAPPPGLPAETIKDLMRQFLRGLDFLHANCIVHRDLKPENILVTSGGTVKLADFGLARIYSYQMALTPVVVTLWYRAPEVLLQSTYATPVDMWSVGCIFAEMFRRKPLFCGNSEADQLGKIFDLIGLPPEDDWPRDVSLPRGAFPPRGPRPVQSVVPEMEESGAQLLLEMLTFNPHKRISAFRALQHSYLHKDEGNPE
Chain of CDK4/cyclin D1 (P24385 whole entry partner, species assumed): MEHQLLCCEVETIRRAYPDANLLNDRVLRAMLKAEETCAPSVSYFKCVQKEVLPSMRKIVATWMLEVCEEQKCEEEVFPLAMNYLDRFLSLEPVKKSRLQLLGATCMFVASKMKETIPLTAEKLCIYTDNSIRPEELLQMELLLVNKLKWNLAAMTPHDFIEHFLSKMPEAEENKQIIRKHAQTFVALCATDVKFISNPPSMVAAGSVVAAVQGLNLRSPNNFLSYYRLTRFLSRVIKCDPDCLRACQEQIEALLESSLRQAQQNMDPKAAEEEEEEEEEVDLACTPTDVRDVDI
Experimental: (§2) The compounds from the examples above were investigated for their ability to inhibit the enzymatic activity of various protein kinases. This was achieved by measurement of incorporation of radioactive phosphate from ATP into appropriate polypeptide substrates. Recombinant protein kinases and kinase complexes were produced or obtained commercially. Assays were performed using 96-well plates and appropriate assay buffers (typically 25 mM β-glycerophosphate, 20 mM MOPS, 5 mM EGTA, 1 mM DTT, 1 mM […], pH 7.4), into which were added 2-4 μg of active enzyme with appropriate substrates. The reactions were initiated by addition of Mg/ATP mix (15 mM MgCl2+100 μM ATP with 30-50 kBq per well of [γ-^32P]-ATP) and mixtures incubated as required at 30° C. Reactions were stopped on ice, followed by filtration through p81 filterplates or GF/C filterplates (Whatman Polyfiltronics, Kent, UK). After washing 3 times with 75 mM aq orthophosphoric acid, plates were dried, scintillant added and incorporated radioactivity measured in a scintillation counter (TopCount, Packard Instruments, Pangbourne, Berks, UK). Compounds for kinase assay were made up as 10 mM stocks in DMSO and diluted into 10% DMSO in assay buffer. Data was analysed using curve-fitting software (GraphPad Prism version 3.00 for Windows, GraphPad Software, San Diego Calif. USA) to determine IC50 values (concentration of test compound which inhibits kinase activity by 50%).

[3] = target: CDK1/cyclin B (Homo sapiens, UniProt P06493); assay: Kinase assay CDK1/cyclin B; format: biochemical; details: Table 2; read-out: Kinase inhibition IC50 CDK1B
Chain of CDK1/cyclin B (P06493 whole entry, species assumed): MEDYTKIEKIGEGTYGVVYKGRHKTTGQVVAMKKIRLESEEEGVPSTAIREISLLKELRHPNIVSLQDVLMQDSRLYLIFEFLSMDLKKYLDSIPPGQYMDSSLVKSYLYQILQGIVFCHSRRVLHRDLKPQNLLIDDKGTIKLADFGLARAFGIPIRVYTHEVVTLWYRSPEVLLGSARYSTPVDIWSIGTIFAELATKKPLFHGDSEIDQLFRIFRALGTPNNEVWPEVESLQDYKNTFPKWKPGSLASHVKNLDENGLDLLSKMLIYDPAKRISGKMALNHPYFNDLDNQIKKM
Chain of CDK1/cyclin B (P14635 whole entry partner, species assumed): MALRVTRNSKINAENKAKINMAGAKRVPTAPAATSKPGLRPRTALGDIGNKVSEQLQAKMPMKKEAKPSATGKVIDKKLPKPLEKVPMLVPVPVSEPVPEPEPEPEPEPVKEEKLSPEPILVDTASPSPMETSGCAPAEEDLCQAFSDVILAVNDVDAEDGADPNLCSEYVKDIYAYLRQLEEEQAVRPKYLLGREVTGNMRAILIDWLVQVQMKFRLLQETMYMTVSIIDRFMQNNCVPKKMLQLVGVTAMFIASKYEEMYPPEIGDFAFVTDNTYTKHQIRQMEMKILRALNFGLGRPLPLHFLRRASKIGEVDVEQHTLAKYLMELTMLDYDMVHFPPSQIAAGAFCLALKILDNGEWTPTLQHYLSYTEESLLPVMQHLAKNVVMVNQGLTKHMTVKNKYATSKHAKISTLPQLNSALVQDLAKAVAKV
Experimental: as §2

[4] = target: CDK7/cyclin H (Homo sapiens, UniProt P50613); assay: CDK 7 assay; format: biochemical
Chain of CDK7/cyclin H (P50613 whole entry): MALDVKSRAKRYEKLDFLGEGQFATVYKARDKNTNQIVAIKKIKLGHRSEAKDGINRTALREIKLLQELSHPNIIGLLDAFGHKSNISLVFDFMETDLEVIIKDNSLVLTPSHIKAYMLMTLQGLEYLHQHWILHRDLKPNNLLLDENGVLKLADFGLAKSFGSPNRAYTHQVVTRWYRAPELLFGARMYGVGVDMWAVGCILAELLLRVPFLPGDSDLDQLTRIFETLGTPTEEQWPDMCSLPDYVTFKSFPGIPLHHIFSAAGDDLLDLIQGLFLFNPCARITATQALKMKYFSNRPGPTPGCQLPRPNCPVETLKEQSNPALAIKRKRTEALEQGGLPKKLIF
Chain of CDK7/cyclin H (P51946 whole entry partner): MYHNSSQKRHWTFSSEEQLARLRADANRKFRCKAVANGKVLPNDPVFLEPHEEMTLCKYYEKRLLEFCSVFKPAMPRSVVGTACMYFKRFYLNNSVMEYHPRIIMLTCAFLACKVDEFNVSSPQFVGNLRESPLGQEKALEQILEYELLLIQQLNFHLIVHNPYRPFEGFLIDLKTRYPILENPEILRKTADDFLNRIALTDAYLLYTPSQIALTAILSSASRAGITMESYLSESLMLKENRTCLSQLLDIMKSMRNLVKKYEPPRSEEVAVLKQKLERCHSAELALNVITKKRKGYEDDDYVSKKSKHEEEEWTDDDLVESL
Experimental: as §1

[5] = target: CDK2/cyclin A (Homo sapiens, UniProt P24941); assay: Kinase assay CDK2/cyclin A; format: biochemical; details: Table 2; read-out: Kinase inhibition IC50 CDK2A
Experimental: as §2

[6] = test system: A2780; assay: MTT cytotoxicity assay, A2780; format: cell-based; details: Homo sapiens, after incubation
Experimental: (§3) The compounds of the invention were subjected to a standard cellular proliferation assay using human tumour cell lines obtained from the ATCC (American Type Culture Collection, 10801 University Boulevard, Manessas, Va. 20110-2209, USA). […] C.; Thomas, D. G.; Darling, J. L. Anti Cancer Drugs 1996, 7, 331-8; Loveland, B. E.; Johns, T. G.; Mackay, 1. R.; Vaillant, F.; Wang, Z. X.; Hertzog, P. J. Biochemistry International 1992, 27, 501-10). In short: cells were seeded into 96-well plates according to doubling time and incubated overnight at 37° C. […] MTT was made up as a stock of 5 mg/mL in cell media and filter-sterilised. Media was removed from cells followed by a wash with 200 μL PBS. MTT solution was then added at 20 μL per well and incubated in the dark at 37° C. for 4 h MTT solution was removed and cells again washed with 200 μL PBS. MTT dye was solubilised with 200 μL per well of DMSO with agitation. Absorbance was read at 540 nm and data analysed using curve-fitting software (GraphPad Prism version 3.00 for Windows, GrapbPad Software, San Diego Calif. USA) to determine IC50 values (concentration of test compound which inhibits cell growth by 50%).

[7] = target: T1, aurora-B (Homo sapiens, UniProt Q96GD4); assay: Aurora-B (human) kinase assay; format: biochemical; details: Table 3; read-out: Kinase inhibition Aurora B
T1 construct: purchased Upstate, Dundee, UK
T1 sequence (Q96GD4 whole entry): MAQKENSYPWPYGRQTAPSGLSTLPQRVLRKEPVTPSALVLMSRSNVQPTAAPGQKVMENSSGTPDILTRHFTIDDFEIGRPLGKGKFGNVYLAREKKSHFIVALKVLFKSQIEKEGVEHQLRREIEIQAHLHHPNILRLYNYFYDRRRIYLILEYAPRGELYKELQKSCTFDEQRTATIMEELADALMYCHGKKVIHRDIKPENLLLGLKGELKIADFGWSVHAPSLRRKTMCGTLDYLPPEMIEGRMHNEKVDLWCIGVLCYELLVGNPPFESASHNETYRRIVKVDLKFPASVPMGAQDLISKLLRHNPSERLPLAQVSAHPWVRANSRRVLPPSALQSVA
Experimental: This was achieved by measurement of incorporation of radioactive phosphate from ATP into Kemptide substrate (LRRASLG), upon phosphorylation by commercially obtained aurora-B (human, Upstate, Dundee, UK). Assays were performed using 96-well plates and appropriate assay buffers (20 mM Tris, 25 mM β-glycerophosphate, 5 mM EGTA, 1 mM DTT, 1 mM sodium vanadate, pH 7.5), into which were added 75 ng of pre-activated enzyme with 500 μM substrate (Kemptide). The reactions were initiated by addition of MgATP mix (15 mM MgCl2+100 μM ATP with 15-25 kBq per well of [γ-^32P]-ATP) and mixtures incubated for 60 min at 30° C. Reactions were stopped by addition of an equal volume of 75 mM aq orthophosphoric acid, followed by filtration through p81 filterplates (Whatman Polyfiltronics, Kent, UK). After washing 4 times with 75 mM aq orthophosphoric acid, plates were dried, scintillant added and incorporated radioactivity measured in a scintillation counter (TopCount, Packard Instruments, Pangbourne, Berks, UK). Compounds for kinase assay were made up as 10 mM stocks in DMSO and diluted into 10% DMSO in assay buffer. Data was analysed using curve-fitting software (XLfit version 4.0.2, IDBS, Guildford, Surrey, UK) to determine IC50 values (concentration of test compound which inhibits kinase activity by 50%).
Aurora-B (human, Upstate, Dundee, UK) was pre-activated immediately prior to kinase assay in appropriate buffers (20 mM Tris, 25 mM β-glycerophosphate, 5 mM EGTA, 1 mM DTT, 1 mM sodium vanadate, pH 7.5) by incubating 15 μg of enzyme with 4 μg INCENP (Upstate, Dundee, UK) in the presence of MgATP mix (15 mM MgCl2+100 μM ATP) for 15 min at 30° C.

[8] = test system: Mia-PaCa-2; assay: MTT cytotoxicity assay, Mia-PaCa-2; format: cell-based; details: Homo sapiens, after incubation
Experimental: as §3

[9] = Table 2, read-out: Kinase inhibition IC50 CDK9T1
[10] = Table 3, read-out: Kinase inhibition CDK9T1
[11] = Table 2, read-out: Kinase inhibition IC50 CDK4D1
[12] = Table 2, read-out: Kinase inhibition IC50 CDK7H
[13] = Table 3, read-out: Kinase inhibition CDK4D1
[14] = Table 3, read-out: Kinase inhibition CDK7H

Chain of CDK9/cyclin T1 (P50750 whole entry): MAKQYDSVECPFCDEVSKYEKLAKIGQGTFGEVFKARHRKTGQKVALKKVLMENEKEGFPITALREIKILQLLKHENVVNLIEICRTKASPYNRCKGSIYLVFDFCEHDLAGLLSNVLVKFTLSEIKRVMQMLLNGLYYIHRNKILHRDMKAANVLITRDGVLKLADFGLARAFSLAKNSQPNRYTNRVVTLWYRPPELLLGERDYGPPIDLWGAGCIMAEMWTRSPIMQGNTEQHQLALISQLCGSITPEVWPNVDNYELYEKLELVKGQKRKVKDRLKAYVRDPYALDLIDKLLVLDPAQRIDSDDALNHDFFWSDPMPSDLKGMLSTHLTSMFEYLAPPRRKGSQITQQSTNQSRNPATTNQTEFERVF
Chain of CDK9/cyclin T1 (O60563 whole entry partner): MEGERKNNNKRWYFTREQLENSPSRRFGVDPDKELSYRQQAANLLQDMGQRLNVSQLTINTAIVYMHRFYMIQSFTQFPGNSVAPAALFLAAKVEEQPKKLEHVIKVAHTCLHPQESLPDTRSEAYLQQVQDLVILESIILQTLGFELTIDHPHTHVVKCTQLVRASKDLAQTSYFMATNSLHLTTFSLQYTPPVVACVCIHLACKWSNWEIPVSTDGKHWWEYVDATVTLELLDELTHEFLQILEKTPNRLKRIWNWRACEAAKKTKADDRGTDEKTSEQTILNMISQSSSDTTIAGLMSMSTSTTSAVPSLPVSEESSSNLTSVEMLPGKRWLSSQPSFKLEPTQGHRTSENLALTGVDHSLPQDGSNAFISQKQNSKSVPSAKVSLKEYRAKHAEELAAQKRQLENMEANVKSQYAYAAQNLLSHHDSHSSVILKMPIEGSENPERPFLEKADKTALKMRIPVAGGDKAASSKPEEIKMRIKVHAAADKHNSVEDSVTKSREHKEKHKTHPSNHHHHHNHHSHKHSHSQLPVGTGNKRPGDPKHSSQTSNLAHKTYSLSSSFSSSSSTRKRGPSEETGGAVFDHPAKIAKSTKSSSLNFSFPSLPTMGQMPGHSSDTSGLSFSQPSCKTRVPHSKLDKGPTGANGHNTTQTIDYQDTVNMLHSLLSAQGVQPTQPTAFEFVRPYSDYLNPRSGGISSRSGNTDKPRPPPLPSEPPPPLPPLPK

| IC50 [1, 9] | IC50 [1, 10] | IC50 [2, 11] | IC50 [3] | IC50 [4, 12] | IC50 [5] | IC50 [2, 13] | IC50 [4, 14] | IC50 [7] | Compound | IC50 [6] | IC50 [8] |
| --- | --- | --- | --- | --- | --- | --- | --- | --- | --- | --- | --- |
| 6.1 µM | 6.08 µM | > 100 µM | > 100 µM | > 100 µM | > 100 µM |  |  |  | O=[N+]([O-])c1cccc(Nc2nccc(-c3c[nH]c4ccccc34)n2)c1 [Compound 2, [4-(1H-Indol-3-yl)-pyrimidin-2-yl]-(3-nitro-phenyl)-amine] |  |  |
| > 100 µM |  | > 100 µM | > 100 µM | > 100 µM | > 100 µM |  |  |  | Fc1ccc(Nc2nccc(-c3c[nH]c4ccccc34)n2)cc1 [Compound 3, (4-Fluoro-phenyl)-[4-(1H-indol-3-yl)-pyrimidin-2-yl]-amine] |  |  |
| 2.8 µM | 2.82 µM | 1 µM | 1.9 µM | 5.4 µM | 2.6 µM | 1 µM | 5.44 µM |  | COc1ccc(Nc2nccc(-c3c[nH]c4ccccc34)n2)cn1 [Compound 4, [4-(1H-Indol-3-yl)-pyrimidin-2-yl]-(6-methoxy-pyridin-3-yl)-amine] |  |  |
| > 10 µM |  |  |  | > 10 µM |  |  |  | 0.26 µM | c1ccc2c(-c3ccnc(Nc4ccc(N5CCOCC5)cc4)n3)c[nH]c2c1 [Compound 5, [4-(1H-Indol-3-yl)-pyrimidin-2-yl]-(4-morpholin-4-yl-phenyl)-amine] | 1.03 µM | 2.4 µM |
|  | 2.08 µM |  |  |  |  | 4.39 µM |  | 0.125 µM | CC(=O)N1CCN(c2ccc(Nc3nccc(-c4c[nH]c5ccccc45)n3)cc2)CC1 [Compound 6, 4-(1H-indol-3-yl)-N-(4-acetylpiperazin-1-ylphenyl)pyrimidin-2-amine] | 0.789 µM | 0.785 µM |
|  | 0.52 µM |  |  |  |  | 0.426 µM | 2.53 µM | 0.17 µM | c1ccc2c(-c3ccnc(Nc4ccc(N5CCNCC5)cc4)n3)c[nH]c2c1 [Compound 7, 4-(1H-indol-3-yl)-N-(4-piperazin-1-ylphenyl)pyrimidin-2-amine] | 0.086 µM | 0.166 µM |
|  | 3.03 µM |  |  |  |  | 5.46 µM | 6.67 µM | 0.158 µM | CC1CN(c2ccc(Nc3nccc(-c4c[nH]c5ccccc45)n3)cc2)CC(C)O1 (centres unmarked) [Compound 9] | 5.45 µM | 6.23 µM |
|  | 1.59 µM |  |  |  |  | 5.78 µM | 5.23 µM | 0.729 µM | CN(C)c1ccc(Nc2nccc(-c3c[nH]c4ccccc34)n2)cc1 [Compound 10, N′-[4-(1H-indol-3-yl)pyrimidin-2-yl]-N,N-dimethylbenzene-1,4-diamine] | 0.485 µM | 5.48 µM |
|  | 1.26 µM |  |  |  |  |  |  | 0.0664 µM | COc1cc(Nc2nccc(-c3c[nH]c4ccccc34)n2)cc(OC)c1OC [Compound 12, 4-(1H-indol-3-yl)-N-(3,4,5-trimethoxyphenyl)pyrimidin-2-amine] | 0.043 µM | 0.077 µM |
|  | 4.24 µM |  |  |  |  |  |  | 0.228 µM | COc1cc(Nc2nccc(-c3c[nH]c4ccccc34)n2)ccc1N1CCOCC1 [Compound 13, 4-(1H-indol-3-yl)-N-(3-methoxyl-4-morpholin-4-ylphenyl)pyrimidin-2-amine] | 2.48 µM | 6.73 µM |
|  | 4.44 µM |  |  |  |  |  | 6.66 µM | 0.0246 µM | CC(=O)N1CCN(c2ccc(Nc3nccc(-c4c(C)[nH]c5ccccc45)n3)cc2)CC1 [Compound 22] | 0.299 µM | 0.778 µM |
|  | 1.54 µM |  |  |  |  |  | 3.47 µM | 0.0761 µM | CC(=O)N1CCN(c2ccc(Nc3nccc(-c4c[nH]c5c(C)cccc45)n3)cc2)CC1 [Compound 23] | 0.448 µM | 0.789 µM |
